Test system: mechanical allodynia
Details: rat, in vivo

| Substance | Effective intrathecal doses | apparent order of potency for suppression of allodynia | block of mechanical allodynia |
| --- | --- | --- | --- |
| Met(0)^12-SNX-111 [SNX-279] | 0.1 to 0.3 µg | SNX-111 =SNX-273 > SNX-279 | block mechanical allodynia significantly |
| [ala^12-SNX-111 [SNX-273] | 0.1 to 0.3 µg | SNX-111 =SNX-273 > SNX-279 | block mechanical allodynia significantly |
